For the compound `COCn1nc(N2C(=O)c3ccccc3C2=O)c2cc(S(=O)(=O)C(C)C)cc(OCCc3ccccn3)c21`, the melting point (in general, the temperature, or range, at which the solid turns liquid) lay within 160 to 161 °C.

`CC(=O)c1ccc2c(c1O)CC(S(C)(=O)=O)CO2` (configuration not stated) had a melting point of 158 to 162 °C.

The compound `CC(C)(C)C(C)(C)Nc1nc(Cl)nc(NC(C)(C)C(C)(C)C)n1` gave a melting point of 129 to 131 °C.

In the case of `O=C(O)c1ccc(-c2nnc(-c3ccc(OC(F)(F)C(F)(F)F)cc3)o2)cc1`, the melting point was 301 to 307 °C.

As to `CC(=O)Oc1ccc(Cl)c2c(=O)c3ccccc3sc12`, the melting point lay within 141 to 142 °C.

In turn, `NC(=O)NC1CCC(Cl)CC1` (configuration not stated) had a melting point of 177 to 178 °C.

`COc1nc(Cl)cnc1NS(=O)(=O)c1cccnc1-c1ccc(CC(C)C)cc1` came in with a melting point of 156 to 157 °C.

`COc1ccc(C(C#N)=NO)cc1` displayed a melting point of 141 °C.

`Oc1ccc2oc(-c3ccc(O)c(F)c3)cc2c1` showed a melting point of 218 to 222 °C.

In turn, `COc1ccc2c(c1)CC(n1cc[nH]c1=S)CC2` (configuration not stated) showed a melting point of 271 to 273 °C.

On to `CC(=O)C1=C(O)C(=C(C)Nc2cc(NS(C)(=O)=O)cc(NS(C)(=O)=O)c2)C(=O)OC1=O`, for which the melting point worked out at 260 °C.

In turn, `CCN(C)C(=O)N(C)C(=O)Nc1ccccc1` had a melting point of 88.5 to 90.5 °C.

The compound `CC(=O)Oc1cc2c(c([N+](=O)[O-])c1OC(C)=O)C(=O)C(C)(C)CC2` yielded a melting point of 145 to 147 °C.

`CCCCCCOc1ccc(C(=O)Nc2ccc(-n3nc(C(F)(F)F)cc3C(F)(F)F)cc2)cc1` yielded a melting point of 153 to 155 °C.

`COc1ccccc1C(=O)c1[nH]c2cc(Cl)ccc2c1CC(=O)O` showed a melting point of 214 to 217 °C.

`O=C1c2c(cccc2C(F)(F)F)-n2cnc(-c3noc(CN4Cc5ccccc5C4)n3)c2[C@@H]2CCN12`: the melting point lay within 185 to 188 °C.

For `CC(NC(=O)OC(C)(C)C)C(=O)NC1CCN(Cc2ccccc2)C1` (configuration not stated), the melting point fell in the range of 83 to 85 °C.

The compound `Cc1ccc2c(c1)C=Cc1cc(C)ccc1C2c1cn(Cc2ccc(C(=O)Nc3nc(CC(=O)Nc4nc(CC(=O)O)cs4)cs3)o2)c(=O)[nH]c1=S` showed a melting point of 253 °C.

In turn, `O=C1C=C(NC(=O)C(=O)c2cn(Cc3ccc4ccccc4c3)c3ccccc23)CO1` came in with a melting point of 283 to 285 °C.

In turn, `Cc1ccc(CN2CCC(OC(=O)c3ccc(C)cc3)CC2)cc1` returned a melting point of 66 to 77 °C.

The compound `CC(C)(C)OC(=O)Nc1ccsc1NC(=O)OC(C)(C)C` had a melting point of 165 to 167 °C.

Compound `CN(C)c1cc2c(C(F)(F)F)cccc2s1` had a melting point of 70 to 73 °C.

With `CCCN=C(N)Nc1ccnc(OCCCO)n1`, the melting point lay within 183 to 184 °C.

Compound `CC1CCC(Oc2cc(F)cc(C(=O)Nc3ccc(OCCN4CCOCC4)c4ccccc34)c2)CC1` (configuration not stated) yielded a melting point of 98 to 100 °C.

Consider `Cn1c2cc(Cl)cc(Cl)c2c2cc(C(=O)O)sc21`, for which the melting point fell in the range of 278 to 281 °C.

`COc1ccc(Cl)cc1C(=O)NC1COc2cc(C)ccc2C1=O` (configuration not stated) came in with a melting point of 177 to 178 °C.

The compound `COc1ccc(S(=O)(=O)Nc2cccnc2Nc2ccccc2C)cc1` came in with a melting point of 80 to 81 °C.

`CC(C)(C)C(=O)c1ccc(CSCc2ccc(C(=O)C(C)(C)C)cc2)cc1` yielded a melting point of 64 to 65 °C.

`CCOC(=O)c1csc(Cc2ccc([N+](=O)[O-])cc2)n1` returned a melting point of 122 to 123 °C.

Take `Cc1c(C)c2c(c(C)c1O)CCC(C)(C(=O)N1CC(Oc3ccc(NC(=O)OC(C)(C)C)cc3)C1)O2` (configuration not stated): the melting point fell in the range of 182 to 183 °C.

As to `CC(Cl)(Cl)C(NC(=O)c1ccc(Cl)cc1)NC(=NC#N)Nc1ccc(F)nc1` (configuration not stated), the melting point lay in the range of 206 to 207 °C.

As to `O=c1[nH]c2sc3cc(Br)c(F)cc3c2[nH]c1=O`, the melting point was more than 300 °C.

`COc1cccc(-c2cccc3nc(Nc4cc(OC)c(OC)c(OC)c4)oc23)c1`: the melting point fell in the range of 167 to 170 °C.

Take `NC(=S)Cn1c(=O)sc2ccccc21`: the melting point lay in the range of 205 to 207 °C.

`CC(C)CC(Br)C(=O)N1CCC[C@H]1CO` (some centres not stated) came in with a melting point of 79 to 82 °C.

Take `CC(C)(C)OC(=O)N1CCC(OCc2ccccc2)C1CC(O)Cn1cnc2cccc(F)c2c1=O` (configuration not stated): the melting point amounted to 219 °C.

On to `NC(=S)c1ccc([N+](=O)[O-])cc1`, for which the melting point is 165 to 167 °C.

Take `Nc1nc(OS(=O)(=O)c2ccccc2)ncc1F`: the melting point fell in the range of 139 to 141 °C.

`Cn1c(=O)cc(C(N)=S)c2cc(C(=O)c3ccc(Cl)cc3)ccc21` displayed a melting point of 210 °C.

`CC(CCCCOCCCc1ccc(N2CCCC2)cc1)NCC(O)c1cc(O)cc(O)c1` (configuration not stated) came in with a melting point of 57 to 60 °C.

For `O=C(Nc1ccc2nc(CN3CCCC3)ccc2c1)c1ccc(-c2ccccc2)cc1`, the melting point fell in the range of 181 to 183 °C.

For `O=C(OCCN1CCCCC1)c1c[nH]c2ccccc12`, the melting point lay in the range of 123 to 125 °C.

`CN1CCN(c2c(F)cc3c(=O)c(C(=O)O)cn(C4CSC4)c3c2F)CC1` showed a melting point of 204 to 206 °C.

`Cc1nc(N2CCN(Cc3ccccc3)C2=O)sc1C(=O)NCc1cc(F)cc(F)c1` displayed a melting point of 208 to 209 °C.

As to `CN(CCn1ncc(-c2ccccc2)cc1=O)CC(O)c1ccc(NS(C)(=O)=O)cc1` (configuration not stated), the melting point came to 108 °C.

As to `CCN(c1ccc(C(=O)c2ccccc2)cc1[N+](=O)[O-])C1CCCCC1`, the melting point was in the range of 91.5 to 92 °C.

With `O=C1C(=O)N2c3c(cccc31)OCC2c1ccccc1` (configuration not stated), the melting point lay within 169 to 171 °C.

On to `O=c1[nH]c(N2CCN(Cc3ccccc3)C(CO)C2)cc2ccccc12` (configuration not stated), for which the melting point was 176 to 177 °C.

In turn, `CC(C)(C)OC(=O)N1CCN(C(=O)Cn2sc3ccccc3c2=O)CC1` had a melting point of 120 to 122 °C.

Compound `O=C(Nc1c(C(O)(C(F)(F)F)C(F)(F)F)ccc2ccccc12)c1cccc(Br)c1` registered a melting point of 184 to 185 °C.

Compound `O=[N+]([O-])c1cc(Cl)ccc1NS(=O)(=O)c1ccc(Cl)cc1` returned a melting point of 122 to 123 °C.

In the case of `COc1ccc(CN2CCc3c(cnc4[nH]ncc34)C2)cc1`, the melting point lay in the range of 184 to 186 °C.

The compound `O=C(Nc1ccc(CO)cc1)C1=Cc2cc(-c3ccccc3)ccc2CC1` returned a melting point of 207 to 210 °C.

As to `O=c1c2c(CC3CCOCC3)n[nH]c2c2cccnc2n1-c1ccccc1`, the melting point was in the range of 228 to 234 °C.

`CCC(CC)CC(NC(=O)COC)C1(c2ccc(Cl)c(Cl)c2)CCC1` (configuration not stated): the melting point lay in the range of 72 to 74 °C.

On to `CC(C)NC(=O)C1=C(C(=O)Nc2ccc(Cl)cc2F)CCCC1`, for which the melting point was 188 to 189 °C.

Compound `O=C(Nc1ccc(O[C@H]2CC[C@H](C(=O)O)CC2)cc1)c1nnc(Nc2cc(F)c(F)cc2F)o1` registered a melting point of 251 to 253 °C.

Consider `CCc1cccc(CC)c1NC(=O)NCC1(c2ccccc2)CC1`, for which the melting point was in the range of 166 to 168 °C.

Turning to `CCS(=O)(=O)c1cc(C(=O)NCC2CCCN2CC2CCC2)c(OC)cc1N` (configuration not stated), the melting point was 170 °C.

`N#Cc1ccc2c(c1)N(C1CC1)C=NS2(=O)=O` came in with a melting point of 273 to 276 °C.

Compound `O=C(Nc1ccc(-n2nc(C(F)(F)F)cc2C(F)(F)F)cc1)c1cccs1` came in with a melting point of more than 230 °C.

In the case of `COc1ccc(Cc2nc3n(c2Cc2ccc(OC)cc2)CCS3=O)cc1` (configuration not stated), the melting point fell in the range of 190 to 191 °C.

`O=C(O)c1cc(S(=O)(=O)Oc2ccc(-c3ccc(-c4c(Cc5ccccc5)oc5ccccc45)cc3)cc2)ccc1O` gave a melting point of 171 to 173 °C.

`COc1nc(C)cnc1NS(=O)(=O)c1cccnc1-c1ccc(NC(C)C)cc1` had a melting point of 105 to 107 °C.

For `O=[N+]([O-])c1cnc(Sc2n[nH]c(-c3cccs3)n2)s1`, the melting point lay within 179 to 181 °C.

`CN(C)CC(=O)N1CCN2C(=O)N(c3cc(Cl)cc(Cl)c3)C(=O)C2(Cc2ccc(Br)cc2)C1` (configuration not stated) came in with a melting point of 73.5 °C.

In turn, `Cc1ccc(Br)c(S(C)(=O)=O)c1` had a melting point of 110 to 114 °C.

`Nc1ccc(C(=O)Nc2ccc(N)cc2Cl)cc1`: the melting point is 194 to 197 °C.

`CCCCCCOc1ccc(C(=O)Nc2ccccc2Sc2ccccc2-c2nnn[nH]2)cc1` showed a melting point of 154 to 156 °C.

Turning to `Cc1nnc2n1-c1ccc(C(=O)O)cc1C(c1ccccc1Cl)=NC2`, the melting point was 169 to 173 °C.

Take `O=C(O)c1cnccc1C(=O)c1ccc(F)cc1`: the melting point fell in the range of 231 to 232 °C.

Take `O=c1[nH]c(=O)n2c3c(cccc13)Sc1ccc(C(F)(F)F)cc1-2`: the melting point fell in the range of 278 to 280 °C.

With `Cc1ccc(O)c(C(C)(C)CC(C)(C)C)c1`, the melting point was 42 to 45 °C.

`Nc1ccc2ccc(-c3cccc(Br)c3)nc2n1` registered a melting point of 165 to 166 °C.

In the case of `CNC(=S)c1cnn(-c2cccc(Cl)c2)c1Cl`, the melting point was 128 to 130 °C.

As to `O=C1NCCc2ccc(OCCCCN3CCN(c4cccc5ccccc45)CC3)nc2N1`, the melting point fell in the range of 188 to 190 °C.

`COc1cc(C)c(C(=O)c2c(C(F)(F)F)cc(Cl)nc2Cl)c(OC)c1OC` showed a melting point of 81 to 83 °C.

With `COc1cc(C(F)(F)F)nc(NC(=O)Oc2ccccc2)n1`, the melting point fell in the range of 85 to 88 °C.

Consider `CC(=CC(=O)c1ccccc1)NC(Cc1ccc(-c2cccc(CNCC(=O)c3ccccc3)c2)cc1)C(=O)O` (configuration not stated), for which the melting point came out at 136 °C.

On to `O=C(OCc1ccccc1C(=O)O)c1ccccc1`, for which the melting point lay within 118 to 124 °C.

`O=C1Cc2cc(Oc3ccccc3)ccc2N1` came in with a melting point of 148 to 150 °C.

As for `C[C@@H](c1nc(-c2ccc(C#N)cc2)cs1)[C@](O)(Cn1cncn1)c1ccc(F)cc1F`, the melting point lay within 164 to 166 °C.

`CC(=O)NC(=O)C(SCc1ccccc1)C(c1ccccc1)(c1ccccc1)c1ccccc1` (configuration not stated): the melting point lay within 184 to 186 °C.

In the case of `CC(C)C[C@@H](/C=C/CCO)NP(=O)(c1ccccc1)c1ccccc1`, the melting point turned out to be 124 °C.

Compound `Cc1c(CC(=O)NCCO[N+](=O)[O-])cc(-c2ccc(S(C)(=O)=O)cc2)n1-c1ccccc1` registered a melting point of 89 °C.

`Cc1cc(-c2nc3cccnn3c2-c2ccnc(NC(=O)CC(F)(F)F)c2)ccc1F`: the melting point lay within 220 to 221 °C.

Regarding `CC(C(=O)NCC(COC(=O)C(C)(C)C)Cc1ccc(C(C)(C)C)cc1)c1ccc(NS(C)(=O)=O)c(Cl)c1` (configuration not stated), the melting point lay in the range of 61 to 63 °C.

These data come from a melting point compilation (Tetko et al.; mined from patent text by program, amines drawn as free bases though some values may be those of a salt).
